The values that follow come from article PMC7666069 (Journal of medicinal chemistry, 2020).

Like-named read-outs stand apart in the source and are kept apart here.

Series [1] deals with 5-HT1A receptor. The conditions noted are these: displacement of agonist [3H]-8-OH-DPAT; cited from earlier work.
The conditions of series [2]: patients with schizophrenia, 800 mg/day, not placebo-controlled; cited from earlier work.
Series [3] deals with mice. The conditions noted are these: oral single 246–2460 mg/kg or 61.5–615 mg/kg for 10 days; cited from earlier work.
Series [4] has as its target AmpC β-lactamase (Escherichia coli, UniProt P00811). Kind of series: AmpC colloidal aggregation counter screen. The class given is biochemical. The conditions noted are these: low micromolar concentrations; with/without detergent. Background: Counterscreens check selectivity or assay interference.
Series [5] deals with DOR (Homo sapiens, UniProt P41143). Kind of series: PDSP receptor profiling. The class given is binding.
Series [6] addresses MOR (Homo sapiens, UniProt P35372). Kind of series: PDSP receptor profiling. The class given is binding.
For series [7] the following is noted: cited from earlier work.
Series [8] has as its target H3 (Homo sapiens, UniProt Q9Y5N1). Kind of series: PDSP receptor profiling. The series is classed as binding.
Series [9] concerns the target T1, ɑ2C (Homo sapiens, UniProt P18825).
T1 sequence (P18825 1-462): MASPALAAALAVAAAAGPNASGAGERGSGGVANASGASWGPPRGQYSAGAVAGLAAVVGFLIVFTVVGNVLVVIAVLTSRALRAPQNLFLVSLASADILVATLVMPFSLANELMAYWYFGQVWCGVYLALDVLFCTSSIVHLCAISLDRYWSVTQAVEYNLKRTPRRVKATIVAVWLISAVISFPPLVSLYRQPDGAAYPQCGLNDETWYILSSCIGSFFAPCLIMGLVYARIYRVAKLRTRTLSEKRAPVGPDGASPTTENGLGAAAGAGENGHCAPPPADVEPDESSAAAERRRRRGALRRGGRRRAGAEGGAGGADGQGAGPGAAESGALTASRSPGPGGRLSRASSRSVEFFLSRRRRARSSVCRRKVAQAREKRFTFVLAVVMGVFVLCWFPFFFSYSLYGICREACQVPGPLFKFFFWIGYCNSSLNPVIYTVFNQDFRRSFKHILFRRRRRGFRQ
The series is described as follows: PDSP receptor profiling. The series is classed as binding.

For series [10] the following is noted: cited from earlier work; for apparent plasma clearance (CL'): oromucosal spray.
Series [11] has as its target T2, 5-HT2C (Homo sapiens, UniProt P28335).
T2 sequence (P28335 33-458): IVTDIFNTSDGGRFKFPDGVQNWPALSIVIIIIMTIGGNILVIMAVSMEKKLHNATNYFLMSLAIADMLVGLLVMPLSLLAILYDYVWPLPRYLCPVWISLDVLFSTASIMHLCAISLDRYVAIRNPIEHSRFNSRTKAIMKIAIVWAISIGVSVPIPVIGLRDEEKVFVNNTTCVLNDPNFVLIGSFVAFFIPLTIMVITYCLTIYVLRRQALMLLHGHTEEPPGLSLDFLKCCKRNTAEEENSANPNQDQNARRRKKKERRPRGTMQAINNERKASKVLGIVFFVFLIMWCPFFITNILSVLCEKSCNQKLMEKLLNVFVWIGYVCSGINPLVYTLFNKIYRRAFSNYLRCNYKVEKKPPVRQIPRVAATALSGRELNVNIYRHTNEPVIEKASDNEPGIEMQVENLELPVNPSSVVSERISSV
Kind of series: PDSP receptor profiling. The class given is binding.

The conditions of series [12]: room temperature; air oxidation to cannabidiol hydroxyquinone; cited from earlier work.
Series [13] can be described thus: Colloidal aggregate detection by dynamic light scattering. The series is classed as physicochemical. Conditions: critical aggregation concentration can vary several-fold with conditions.
The target of series [14] is T3, σ2 (Rattus norvegicus, UniProt Q5U3Y7).
T3 sequence (Q5U3Y7 1-176): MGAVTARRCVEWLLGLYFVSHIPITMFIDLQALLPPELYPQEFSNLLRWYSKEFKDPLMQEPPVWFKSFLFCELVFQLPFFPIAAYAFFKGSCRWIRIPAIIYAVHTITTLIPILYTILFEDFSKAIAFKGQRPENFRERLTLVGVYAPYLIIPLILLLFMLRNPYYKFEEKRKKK
Kind of series: PDSP receptor profiling. The series is classed as binding.

For series [15], the target named is KOR (Homo sapiens, UniProt P41145). The series is described as follows: PDSP receptor profiling. The series is classed as binding.
Series [16] has as its target D1 (Homo sapiens, UniProt P21728). The series is described as follows: PDSP receptor profiling. The series is classed as binding.
In series [17] the test system is malate dehydrogenase (MDH). Kind of series: MDH orthogonal aggregation counter screen. The series is classed as biochemical. The conditions noted are these: 33 or 100 μM; presence or absence of 0.01% Triton X-100.
In series [18] the test system is ion channels. Conditions: membrane pressure and direct binding; cited from earlier work.
Series [19] addresses T4, ɑ2b (Homo sapiens, UniProt P18089).
T4 sequence (P18089 1-450): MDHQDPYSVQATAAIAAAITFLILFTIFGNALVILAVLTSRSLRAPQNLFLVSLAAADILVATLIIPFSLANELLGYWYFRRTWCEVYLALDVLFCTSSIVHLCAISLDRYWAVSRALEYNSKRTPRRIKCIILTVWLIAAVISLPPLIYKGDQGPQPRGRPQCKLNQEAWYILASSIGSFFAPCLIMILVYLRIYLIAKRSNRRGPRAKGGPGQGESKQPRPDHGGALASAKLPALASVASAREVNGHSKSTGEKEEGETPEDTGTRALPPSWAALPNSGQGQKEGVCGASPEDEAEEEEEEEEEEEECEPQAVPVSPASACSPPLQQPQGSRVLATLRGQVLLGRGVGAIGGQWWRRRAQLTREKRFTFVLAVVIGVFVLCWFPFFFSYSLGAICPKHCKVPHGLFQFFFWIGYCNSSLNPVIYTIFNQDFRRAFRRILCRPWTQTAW
The series is described as follows: PDSP receptor profiling. The series is classed as binding.

For series [20], the system named is CB1 receptor. The conditions noted are these: cited from earlier work.
Series [21] deals with CB2 receptor. The conditions noted are these: cited from earlier work.

Chain of H3 (Q9Y5N1 whole entry): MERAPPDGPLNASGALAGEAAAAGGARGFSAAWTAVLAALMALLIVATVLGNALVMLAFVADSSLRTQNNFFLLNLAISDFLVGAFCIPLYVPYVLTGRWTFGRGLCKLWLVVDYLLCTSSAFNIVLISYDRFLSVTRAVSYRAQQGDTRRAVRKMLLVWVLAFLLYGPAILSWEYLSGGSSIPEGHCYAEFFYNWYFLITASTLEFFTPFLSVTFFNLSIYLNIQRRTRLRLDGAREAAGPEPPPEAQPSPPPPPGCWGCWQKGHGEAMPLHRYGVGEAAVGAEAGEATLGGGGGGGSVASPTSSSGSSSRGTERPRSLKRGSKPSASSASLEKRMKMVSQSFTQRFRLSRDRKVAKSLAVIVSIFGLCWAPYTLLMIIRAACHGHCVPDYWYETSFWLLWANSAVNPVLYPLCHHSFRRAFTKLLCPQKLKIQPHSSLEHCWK
Chain of MOR (P35372 whole entry): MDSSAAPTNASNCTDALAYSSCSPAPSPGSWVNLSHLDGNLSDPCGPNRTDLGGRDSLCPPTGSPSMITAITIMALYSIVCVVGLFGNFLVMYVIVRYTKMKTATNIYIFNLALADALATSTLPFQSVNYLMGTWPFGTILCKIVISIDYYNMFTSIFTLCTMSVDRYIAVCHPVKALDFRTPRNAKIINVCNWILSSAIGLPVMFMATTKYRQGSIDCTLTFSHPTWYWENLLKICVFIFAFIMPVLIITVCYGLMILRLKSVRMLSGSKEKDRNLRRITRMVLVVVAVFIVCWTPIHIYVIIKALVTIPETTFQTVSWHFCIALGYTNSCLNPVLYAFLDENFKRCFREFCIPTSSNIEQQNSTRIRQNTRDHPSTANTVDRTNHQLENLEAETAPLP
Chain of KOR (P41145 whole entry): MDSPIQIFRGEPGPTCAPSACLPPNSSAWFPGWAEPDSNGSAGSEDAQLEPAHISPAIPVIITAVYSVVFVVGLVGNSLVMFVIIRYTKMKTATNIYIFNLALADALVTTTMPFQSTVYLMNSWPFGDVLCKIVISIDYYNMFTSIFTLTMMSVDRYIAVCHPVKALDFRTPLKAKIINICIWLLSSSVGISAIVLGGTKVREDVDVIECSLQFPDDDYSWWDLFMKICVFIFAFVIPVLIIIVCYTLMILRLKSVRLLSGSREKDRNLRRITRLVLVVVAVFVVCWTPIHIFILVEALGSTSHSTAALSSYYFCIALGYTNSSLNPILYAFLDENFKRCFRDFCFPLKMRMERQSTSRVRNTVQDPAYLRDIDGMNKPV
Chain of DOR (P41143 whole entry): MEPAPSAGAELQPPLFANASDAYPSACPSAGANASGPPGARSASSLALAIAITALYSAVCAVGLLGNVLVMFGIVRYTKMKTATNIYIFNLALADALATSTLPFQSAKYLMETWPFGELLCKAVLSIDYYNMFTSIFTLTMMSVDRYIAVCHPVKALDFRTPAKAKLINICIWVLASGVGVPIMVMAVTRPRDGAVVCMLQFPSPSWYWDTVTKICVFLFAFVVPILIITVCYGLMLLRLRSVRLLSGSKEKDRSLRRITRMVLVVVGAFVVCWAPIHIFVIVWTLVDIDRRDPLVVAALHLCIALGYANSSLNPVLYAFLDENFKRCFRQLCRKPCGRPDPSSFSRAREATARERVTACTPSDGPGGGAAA
Chain of AmpC β-lactamase (P00811 20-377): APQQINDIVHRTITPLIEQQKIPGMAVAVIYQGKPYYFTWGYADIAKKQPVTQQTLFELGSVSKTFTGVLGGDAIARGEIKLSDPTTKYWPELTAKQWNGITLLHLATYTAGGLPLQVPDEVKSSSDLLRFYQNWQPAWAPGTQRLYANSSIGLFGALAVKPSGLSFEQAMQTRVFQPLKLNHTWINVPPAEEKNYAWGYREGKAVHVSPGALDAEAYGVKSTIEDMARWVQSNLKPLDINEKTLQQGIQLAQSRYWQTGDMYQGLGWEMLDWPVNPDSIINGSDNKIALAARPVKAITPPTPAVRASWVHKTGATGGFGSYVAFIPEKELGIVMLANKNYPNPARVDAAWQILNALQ
Chain of D1 (P21728 whole entry): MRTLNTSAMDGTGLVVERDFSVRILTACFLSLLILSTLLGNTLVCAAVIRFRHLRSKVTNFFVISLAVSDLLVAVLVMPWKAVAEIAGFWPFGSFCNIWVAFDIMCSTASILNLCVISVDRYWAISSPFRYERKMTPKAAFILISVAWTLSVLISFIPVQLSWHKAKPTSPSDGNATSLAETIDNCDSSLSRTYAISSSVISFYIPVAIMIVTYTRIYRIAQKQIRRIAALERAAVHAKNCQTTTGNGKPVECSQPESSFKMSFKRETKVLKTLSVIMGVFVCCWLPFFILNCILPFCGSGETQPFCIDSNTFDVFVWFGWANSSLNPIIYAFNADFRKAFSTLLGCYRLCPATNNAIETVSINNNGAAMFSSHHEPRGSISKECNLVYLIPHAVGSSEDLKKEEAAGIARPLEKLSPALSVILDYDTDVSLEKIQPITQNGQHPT

The EC50 is the concentration that produces a half-maximal response. The inhibition is the share of the control response that was lost under treatment. The Ki is a measure of affinity in units of concentration, obtained from inhibition or displacement. A low value points to higher affinity. As to `C=C(C)[C@@H]1CCC(C)=C[C@H]1c1c(O)cc(CCCCC)cc1O` [CBD, Cannabidiol], the EC50 in [1] was 8 to 16 µM. Moreover, the “change in PANSS scores” value in series [2] was “clinically-significant reduction”. Also, the “number of genes altered in gene expression arrays” value in series [3] is more than 50 genes. For the same compound, the “inhibition of AmpC β-lactamase” value in series [4] is given as “detergent-sensitive inhibition”. The inhibition at 10 µM in [5], in series [6], in [8], in [9], in [11] and in series [14] was more than 50% throughout. Besides, the inhibition at 10 µM in [15], in series [16] and in series [19] was more than 50% throughout. The “concentration at which CBD promotes DDI and potentiates the action of many drugs” value in series [7] was 5 to 10 µM. In series [10] (humans, single dose of an oral preparation containing 100 mg of CBD), the plasma concentration was 36 ng/mL and approximately 100 nM. The volume of distribution in [10] (oromucosal spray formulations) is 26,000–31,000 L. Further, the “apparent plasma clearance (CL')” value is on record as 2,500–4,700 L/h in series [10] (doses 5–20 mg) and 533 L/h in series [10] (fed state). Further, the chemical stability entry in series [12] is reported as “chemically unstable”. In addition, the “concentration at which detectable colloidal aggregates form (DLS)” value in series [13] is “approximately 12.5 μM”. The compound also showed a Ki in [14] of more than 1 µM. Moreover, the “inhibition of malate dehydrogenase (MDH)” value in series [17] is listed as “detergent-sensitive inhibition”. The “concentration at which CBD promiscuously affects ion channels” value in series [18] is 0.1 to 5 µM.

Take `CCCCCc1cc(O)c([C@@H]2C=C(C)CC[C@H]2C(C)C)c(O)c1` [H2-CBD]: the “affinity for the CB1 receptor” value in series [20] is “moderate affinity”.

With `C=C(C)[C@H]1CCC(C)=C[C@@H]1c1c(O)cc(CCCCC)cc1O` [(+)-CBD], the CB2 receptor affinity result in series [21] is given as “below 1 μM”. In addition, the CB1 receptor affinity result in series [20] is on record as “below 1 μM”.
